Measured values from patent publication US20220363709A1, “ECTONU[…] METHODS OF USE THEREOF” (priority 2019, published 2022).

These molecules were tested against T1, recombinant CD73 (Homo sapiens, UniProt P21589) (assay: Assay 1: Inhibition of the CD73 Enzyme In Vitro). Settings: not given.
T1 construct: purchased R&D Systems 5795-EN-010
T1 sequence (P21589 27-547 limits assumed): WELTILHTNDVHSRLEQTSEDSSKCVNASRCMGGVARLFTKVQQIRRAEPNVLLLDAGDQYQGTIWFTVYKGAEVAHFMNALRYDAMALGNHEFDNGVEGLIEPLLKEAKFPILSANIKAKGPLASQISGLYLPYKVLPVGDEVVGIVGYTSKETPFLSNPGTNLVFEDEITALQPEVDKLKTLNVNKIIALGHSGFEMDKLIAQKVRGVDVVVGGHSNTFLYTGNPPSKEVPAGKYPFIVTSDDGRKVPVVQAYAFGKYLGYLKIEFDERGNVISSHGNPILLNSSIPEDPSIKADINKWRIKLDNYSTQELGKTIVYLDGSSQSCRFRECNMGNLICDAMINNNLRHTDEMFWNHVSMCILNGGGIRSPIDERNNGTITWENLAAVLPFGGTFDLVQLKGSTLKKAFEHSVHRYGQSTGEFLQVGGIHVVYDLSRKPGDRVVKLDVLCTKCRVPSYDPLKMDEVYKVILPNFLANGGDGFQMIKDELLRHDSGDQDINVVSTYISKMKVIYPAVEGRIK
Type: biochemical
Description: Serial dilutions of test compounds were incubated with recombinant CD73 and AMP in reaction buffer (25 mM Tris HCl pH7.5, 5 mM MgCl2, 50 mM NaCl, 0.25 mM DTT, 0.005% Triton X-100). The final reaction volume was 25 μL and the final concentrations of recombinant CD73 and AMP were 0.5 nM and 50 μM, respectively. […] After 5 minutes at room temperature, absorbance at 630 nm was determined on a microplate spectrophotometer. The concentration of inorganic phosphate was determined using a phosphate standard curve.
ND indicates not determined.

Row | IC50 [nM] | SMILES
1 | > 1000 | Nc1nc(Cl)nc2c1ncn2[C@@H]1O[C@H](COC(Cc2ccc(-c3ccccc3C(=O)O)cc2)(C(=O)O)c2cscn2)C[C@H]1O (stereo partly drawn) [Example 50, 4′-(2-(((2S,4R,5R)-5-(6-amino-2-chloro-9H-purin-9-yl)-4-hydroxytetrahydrofuran-2-yl)methoxy)-2-carboxy-2-(thiazol-4-yl)ethyl)-[1,1′-biphenyl]-2-carboxylic acid]

Same assay, conditions: soluble recombinant CD73 0.5 nM, AMP 50 μM, 30 minutes at room temperature, Malachite Green, absorbance at 630 nm; read-out: Assay 1 CD73 IC50

Row | SMILES | IC50 [nM]
2 | Nc1nc(Cl)nc2c1ncn2[C@@H]1O[C@H](CO[C@@](Cc2ccc(-c3ccc[nH]c3=O)cc2)(C(=O)O)c2cscn2)[C@@H](O)[C@@H]1F (single isomer, unassigned) [Example 22] | 2980
3 | COc1cccc(CO)c1-c1ccc(C[C@](OC[C@H]2O[C@@H](n3cnc4c(N)nc(Cl)nc43)[C@H](O)[C@@H]2O)(C(=O)O)c2cscn2)cc1 (single isomer, unassigned) [Example 40] | 2230

Further lines, results first:

Row | IC50 [nM] | SMILES
4 | 47 | Nc1nc(Cl)nc2c1ncn2[C@@H]1O[C@H](CO[C@](Cc2ccc(-c3ccc[nH]c3=O)cc2)(C(=O)O)c2cscn2)[C@@H](O)[C@@H]1F (single isomer, unassigned) [Example 21]
5 | 42 | CNS(=O)(=O)c1ccccc1-c1ccc(CC(OC[C@H]2O[C@@H](n3cnc4c(N)nc(Cl)nc43)[C@H](O)[C@@H]2O)(C(=O)O)c2cscn2)cc1 (mixture of isomers) [Example 38, 2-(((2R,3S,4R,5R)-5-(6-amino-2-chloro-9H-purin-9-yl)-3,4-dihydroxytetrahydrofuran-2-yl)methoxy)-3-(2′-(N-methylsulfamoyl)-[1,1′-biphenyl]-4-yl)-2-(thiazol-4-yl)propanoic acid]
6 | 2060 | Nc1nc(Cl)nc2c1ncn2[C@@H]1O[C@H](COC(Cc2ccccc2)(C(=O)O)c2cc[nH]n2)[C@@H](O)[C@H]1O (mixture of isomers) [Example 32, 2-(((2R,3S,4R,5R)-5-(6-amino-2-chloro-9H-purin-9-yl)-3,4-dihydroxytetrahydrofuran-2-yl)methoxy)-3-phenyl-2-(1H-pyrazol-3-yl)propanoic acid]
